Four molecules from US4324786A, “Pyrido[2,3-e]-as-triazine derivatives and pharmaceutical compositions” (Egyt Gyogyszervegyeszeti Gyar, priority 1979, dated 1982) can be followed below.

Series [1] concerns mice. Nature of the series: motility inhibiting effect on mice, method of Borsy et al. It counts as in vivo. As to conditions: for ED50: Mus musculus. As for the experimental part:
The motility inhibiting effects of the new compounds were tested on mice by the method of Borsy et al. [Int. Pharmacodyn. […] The compounds to be tested were administered orally to the animals.

Series [2] concerns mice. Kind of series: narcosis potentiating effect on mice, method of Kaergaard. To be noted: for ED50: Mus musculus, po; for Therapeutical index: narcosis potentiating effect, mice, oral.
Description: The narcosis potentiating effects was tested on mice according to the method of Kaergaard [Arch. […] The compounds under examination were administered orally to the animals.
Series [3] deals with mice. Nature of the series: analgesic effect on mice, method of Newbould. As to conditions: oral; for ED50: Mus musculus. It is filed as in vivo. As for the experimental part: The analgesic effects of the new compounds were tested on mice after oral administration, as described by Newbould [Brit.
Another series concerns rats. Kind of series: antiphlogistic effect on rats, method of Winter. It is filed as in vivo. To be noted: oral; for ED50: Rattus norvegicus. On the procedure: The antiphlogistic effects of the new compounds were determined on rats by the method of Winter [Proc. Soc. Exp. Biol. Med. 111, 544 (1962)]. The compounds were administered orally to the animals.
Series [4] relates to mice. Kind of series: animal or person. It counts as in vivo. As to conditions: potentiation of the toxicity of yohimbine, oral; for ED50: Mus musculus. As for the experimental part:
The ability of the compounds in potentiating the toxicity of yohimbine was tested on mice by the method of Quinton [Brit. J. Pharmacol. 21, 51 (1963)]. The compounds were administered orally to the animals.

In series [5] the test system is mice. Kind of series: tetrabenazine antagonizing effect (inhibition of ptosis provoked by tetrabenazine) on mice, method of Brodie. To be noted: oral. It counts as in vivo.
A further series can be described thus: in vivo. As to conditions: mouse, mice, oral. On the procedure: The toxicity was determined on mice after oral adminstration.
Setting [6] is: motility inhibiting effect, mice, oral.

One may read the ED50 as the dose that gives a 50% effect, or the effect in half of the subjects. As to `CCCC(C)(COC(N)=O)COC(N)=O` [Meprobamate, reference compound], the ED50 with mice [1] (po) was determined as 270 mg/kg; in the series with mice [2], 250 mg/kg. The Therapeutical index in the series with mice [1] (setting [6]) amounted to 4.1; in the series with mice [2] it was 4.2.

The term LD50 denotes the dose expected to kill half of the subjects tested. High values mean a less toxic substance, low ones a more toxic substance. On to `CCC(=O)N1NC(N(C(C)C)C(C)C)=Nc2ncccc21` [Example 2, 3-diisopropylamino-1-propionyl-1,2-dihydro-pyrido[2,3-e]-as-triazine], for which the median effective dose (ED50) amounted to 350 mg/kg with mice [3]; 450 mg/kg in the series with rats; 140 mg/kg in the series with mice [4]; 250 mg/kg with mice [1] (motility inhibiting effect, mice, oral, read-out: ED50); 150 mg/kg in the series on mice [5] (Mus musculus); 40 mg/kg in the series on mice [2]. Moreover, the Therapeutical index in the series with mice [3] was 5.7; in the series with rats, 4.4; with mice [4], 14.3; in the series on mice [1] (setting [6]) it was 8; in the series with mice [5] it was 13.3; with mice [2] it was 50. The 50% lethal dose (LD50) in the series “in vivo” worked out at 2000 mg/kg.

As to `CC(=O)Nc1ccc(O)cc1` [Paracetamol, reference compound], the 50% effect level with mice [3] (ED50) was put at a dose of 180 mg/kg.

As for `CCC(=O)N1C(N2CCOCC2)=Nc2ncccc2N1C(=O)CC` [Example 1, 3-morpholino-1,2-dipropionyl-1,2-dihydro-pyrido[2,3-e]-as-triazine], the median effective dose (ED50) in the series with mice [3] is 300 mg/kg; in the series with rats it was 300 mg/kg; in the series with mice [4], 320 mg/kg; with mice [2] it was 54 mg/kg. Besides, the Therapeutical index with mice [3] amounted to 5.3; with rats it was 5.3; in the series with mice [4], 5; with mice [1] (setting [6]), 5; in the series with mice [5], 5; in the series with mice [2], 29.6. In addition, the median lethal dose (LD50) in “in vivo” is 1600 mg/kg.
